Source: US20250082603A1, “OPHTHALMIC COMPOSITION CONTAINING RECOFLAVONE FOR THE TREATMENT OF DRY EYE DISEASE AND METHOD FOR PREPARING THE SAME” (GL PHARMTECH CORP., priority 2021, published 2025)
Where two headings read alike, the source gives them in different places.

Experiments:
[1] = Dissolved state of recoflavone in sodium hydroxide aqueous solution; assay type: physicochemical
Method: When recoflavone is not dissolved in purified water, in (S1) step, sodium hydroxide as an alkalizing agent is added in an amount of not less than 1.05 which is the ratio of molar concentration to that of recoflavone. Here, the ratio of molar concentration is expressed as a value by dividing the molar concentration of sodium hydroxide by the molar concentration of recoflavone contained in the ophthalmic composition.
Specifically, (S1) step is a process where sodium hydroxide is added to purified water to prepare an aqueous solution having a molar concentration of not more than 0.16 M or not less than 0.19 M, and then recoflavone is added. Recoflavone can be dissolved transparently through the above process.
The molar concentration of sodium hydroxide is calculated in the above dissolving process not in the final volume of the manufacturing process. […] Therefore an ophthalmic composition cannot be prepared efficiently. The corresponding contents will be described in details with reference to Tables 1, 2 and FIG. 9 below.

[2] = Cell permeability of dissolved recoflavone; assay type: in vitro ADME; details: high degree of ionization
Text: (§1) It has a property with low solubility at low pH. As the pH increases, it is ionized and its solubility increases.

[3] = Drug distribution in each tissue of eye after 3% eye drop administered to rabbit eyes; assay type: in vivo; details: data not shown
Text: as §1

[4] = Solubility of recoflavone in water and its pH dependence; assay type: physicochemical
Text: as §1
In general, an ophthalmic composition is preferably prepared in a transparent solution state in consideration of the feeling of use in eyes and the efficient absorption of the drug. […] Therefore, if recoflavone is not dissolved in purified water for an ophthalmic composition, a transparent solution may be prepared through (S1) step.

[5] = cited from earlier work
[6] = test system: human keratoconjunctival epithelial cells; details: cited from earlier work
[7] = human keratoconjunctival epithelial cells

COc1ccc(-c2cc(=O)c3c(OC)cc(OCC(=O)O)cc3o2)cc1OC [recoflavone monohydrate]
Dissolved state ([1]; molar concentration ratio 0.93, NaOH 0.196 M, recoflavone monohydrate 0.211 M): Not transparent | Dissolved state ([1]; molar concentration ratio 0.97, NaOH 0.196 M, recoflavone monohydrate 0.201 M): Not transparent | Dissolved state ([1]; molar concentration ratio 1.00, NaOH 0.196 M, recoflavone monohydrate 0.196 M): Not transparent | Dissolved state ([1]; molar concentration ratio 1.05, NaOH 0.194 M, recoflavone monohydrate 0.184 M): Transparent | Dissolved state ([1]; molar concentration ratio 1.06, NaOH 0.203 M, recoflavone monohydrate 0.192 M): Transparent

COc1ccc(-c2cc(=O)c3c(OC)cc(OCC(=O)O)cc3o2)cc1OC [recoflavone, 2-((2-(3,4-dimethoxyphenyl)-5-methoxy-4-oxo-4H-chromen-7-yl)oxy) acetic acid]
cell permeability [2]: poor | drug concentration in the cornea [3]: high immediately after the administration, but it was rapidly decreased over time | drug distribution in each tissue of eye with time [3]: rarely distributed in the tissues located inside the eye and mainly distributed in the surrounding tissues outside of the eye | solubility at low pH ([4]; low pH): low | solubility in water ([4]; water): practically insoluble | hygroscopicity ([5]; form of a hydrate): stable without hygroscopicity | hygroscopicity ([5]; form of an anhydride): has hygroscopicity | Dissolved state of recoflavone ([1]; NaOH aqueous solution out of the range of not more than 0.16 M or not less than 0.19 M, stirring for several hours): not dissolved transparently | Dissolved state of recoflavone ([1]; final volume 40 L, recoflavone 5% (w/v), NaOH 0.196 M, purified water 28,000 mL, ratio 1.05~1.06): Transparent | Dissolved state of recoflavone ([1]; final volume 70 L, recoflavone 5% (w/v), NaOH 0.196 M, purified water 49,000 mL, ratio 1.05~1.06): Transparent | Dissolved state of recoflavone ([1]; final volume 100 mL, recoflavone 3% (w/v), NaOH 0.086 M, purified water 90 mL, ratio 1.05): Transparent | Dissolved state of recoflavone ([1]; final volume 100 mL, recoflavone 3% (w/v), NaOH 0.097 M, purified water 80 mL): Transparent | Dissolved state of recoflavone ([1]; final volume 100 mL, recoflavone 3% (w/v), NaOH 0.111 M, purified water 70 mL): Transparent | Dissolved state of recoflavone ([1]; final volume 100 mL, recoflavone 5% (w/v), NaOH 0.137 M, purified water 100 mL, ratio 1.05): Transparent | Dissolved state of recoflavone ([1]; final volume 100 mL, recoflavone 5% (w/v), NaOH 0.152 M, purified water 90 mL): Transparent | Dissolved state of recoflavone ([1]; final volume 100 mL, recoflavone 5% (w/v), NaOH 0.196 M, purified water 70 mL): Transparent | Dissolved state of recoflavone ([1]; final volume 100 mL, recoflavone 5% (w/v), NaOH 0.392 M, purified water 70 mL): Transparent | Dissolved state of recoflavone ([1]; final volume 100 mL, recoflavone 6% (w/v), NaOH 0.204 M, purified water 80 mL): Transparent | Dissolved state of recoflavone ([1]; final volume 100 mL, recoflavone 6% (w/v), NaOH 0.233 M, purified water 70 mL): Transparent | Dissolved state of recoflavone ([1]; final volume 100 mL, recoflavone 6% (w/v), NaOH 0.466 M, purified water 70 mL): Transparent | Dissolved state of recoflavone ([1]; final volume 100 mL, recoflavone 7% (w/v), NaOH 0.195 M, purified water 100 mL, ratio 1.05): Transparent | Dissolved state of recoflavone ([1]; final volume 100 mL, recoflavone 7% (w/v), NaOH 0.279 M, purified water 70 mL): Transparent | Dissolved state of recoflavone ([1]; final volume 100 mL, recoflavone 7% (w/v), NaOH 0.558 M, purified water 70 mL): Transparent | thickness of the mucin layer ([6]; 100 μM solution): significantly increased | MUC1, MUC4, MUC16 and MUC5AC by real-time PCR [6, 7]: tendency to increase significantly for four hours and then decreased rapidly | mucin proteins by Western blot analysis [6, 7]: MUC5AC only had a tendency to increase and the others did not
